Patent publication US9682995B2, “Amino-substituted isothiazoles” (BAYER PHARMA AKTIENGESELLSCHAFT, priority 2013, dated 2017)

Assays:
Experiment in all cases: Kinase Profiling (KINOMEscan)
Type in all cases: binding
[1] = target: 456 kinases (of these 395 non-mutant kinases) (Homo sapiens, UniProt P00533, G719C); settings: EGFR(G719C); 10 μM
[2] = target: 456 kinases (of these 395 non-mutant kinases) (Homo sapiens, UniProt P00519, T315I); settings: 10 μM
[3] = target: 456 kinases (of these 395 non-mutant kinases) (Homo sapiens, UniProt Q15303); settings: ERBB4; 10 μM
456 kinases (of these 395 non-mutant kinases) (Homo sapiens, UniProt Q15303), sequence (Q15303 26-1308 limits assumed, change not shown): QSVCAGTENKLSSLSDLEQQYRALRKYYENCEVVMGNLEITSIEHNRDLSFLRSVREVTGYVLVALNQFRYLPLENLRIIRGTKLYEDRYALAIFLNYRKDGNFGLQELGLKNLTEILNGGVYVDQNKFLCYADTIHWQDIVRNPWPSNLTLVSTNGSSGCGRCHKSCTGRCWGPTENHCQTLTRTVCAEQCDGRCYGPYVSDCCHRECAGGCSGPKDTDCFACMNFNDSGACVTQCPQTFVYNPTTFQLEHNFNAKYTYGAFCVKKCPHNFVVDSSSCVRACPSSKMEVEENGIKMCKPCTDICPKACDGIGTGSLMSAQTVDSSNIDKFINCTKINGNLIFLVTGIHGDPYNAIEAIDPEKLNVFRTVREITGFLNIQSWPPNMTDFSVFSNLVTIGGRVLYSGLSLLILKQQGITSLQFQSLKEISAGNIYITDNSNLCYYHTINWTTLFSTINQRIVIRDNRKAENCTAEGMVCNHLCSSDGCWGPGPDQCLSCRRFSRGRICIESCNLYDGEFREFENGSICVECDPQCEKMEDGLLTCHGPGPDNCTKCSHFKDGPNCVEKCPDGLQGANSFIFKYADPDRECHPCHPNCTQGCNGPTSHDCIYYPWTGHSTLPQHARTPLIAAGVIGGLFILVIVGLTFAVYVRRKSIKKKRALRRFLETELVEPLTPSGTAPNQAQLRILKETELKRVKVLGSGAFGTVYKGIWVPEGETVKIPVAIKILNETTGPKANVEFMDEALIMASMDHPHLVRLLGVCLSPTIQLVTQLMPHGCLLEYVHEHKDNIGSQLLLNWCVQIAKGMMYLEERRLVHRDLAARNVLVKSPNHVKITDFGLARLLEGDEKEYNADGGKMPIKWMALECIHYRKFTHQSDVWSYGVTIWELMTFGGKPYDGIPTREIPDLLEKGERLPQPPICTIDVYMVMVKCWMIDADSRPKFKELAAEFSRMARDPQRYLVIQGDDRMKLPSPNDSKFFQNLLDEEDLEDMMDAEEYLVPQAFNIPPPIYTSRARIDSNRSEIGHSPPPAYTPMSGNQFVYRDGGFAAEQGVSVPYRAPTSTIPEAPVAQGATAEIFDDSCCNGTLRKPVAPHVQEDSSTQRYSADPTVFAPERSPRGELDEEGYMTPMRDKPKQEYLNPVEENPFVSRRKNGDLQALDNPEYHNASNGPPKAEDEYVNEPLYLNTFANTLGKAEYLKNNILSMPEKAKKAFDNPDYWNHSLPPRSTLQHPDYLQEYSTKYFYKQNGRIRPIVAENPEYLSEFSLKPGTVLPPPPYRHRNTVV

[4] = target: 456 kinases (of these 395 non-mutant kinases) (Homo sapiens, UniProt Q9P1W9); settings: PIM2; 10 μM
[5] = target: 456 kinases (of these 395 non-mutant kinases) (Homo sapiens, UniProt P42336, H1047L); settings: PIK3CA(H1047L); 10 μM
[6] = target: 456 kinases (of these 395 non-mutant kinases) (Homo sapiens, UniProt Q8TBX8); settings: PIP5K2C; 10 μM
456 kinases (of these 395 non-mutant kinases) (Homo sapiens, UniProt Q8TBX8), sequence (Q8TBX8 2-421 limits assumed, change not shown): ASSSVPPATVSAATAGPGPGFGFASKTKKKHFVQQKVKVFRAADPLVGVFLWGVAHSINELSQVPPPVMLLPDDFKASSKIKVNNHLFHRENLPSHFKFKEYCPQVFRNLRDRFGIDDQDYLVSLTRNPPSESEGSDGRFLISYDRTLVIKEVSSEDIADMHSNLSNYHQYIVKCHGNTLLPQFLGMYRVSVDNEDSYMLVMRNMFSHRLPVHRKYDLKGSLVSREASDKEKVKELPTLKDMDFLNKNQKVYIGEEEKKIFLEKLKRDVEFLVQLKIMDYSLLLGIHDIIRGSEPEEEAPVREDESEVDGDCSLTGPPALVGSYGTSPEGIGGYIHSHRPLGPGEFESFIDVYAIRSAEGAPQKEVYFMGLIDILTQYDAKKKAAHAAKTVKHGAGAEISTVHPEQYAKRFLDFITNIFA

[7] = target: 456 kinases (of these 395 non-mutant kinases) (Homo sapiens, UniProt Q9NY57); settings: YANK2; 10 μM
[8] = target: 456 kinases (of these 395 non-mutant kinases) (Homo sapiens, UniProt P07949, V804M); settings: RET(V804M); 10 μM
456 kinases (of these 395 non-mutant kinases) (Homo sapiens, UniProt P07949, V804M), sequence (P07949 29-1114 V804M limits assumed): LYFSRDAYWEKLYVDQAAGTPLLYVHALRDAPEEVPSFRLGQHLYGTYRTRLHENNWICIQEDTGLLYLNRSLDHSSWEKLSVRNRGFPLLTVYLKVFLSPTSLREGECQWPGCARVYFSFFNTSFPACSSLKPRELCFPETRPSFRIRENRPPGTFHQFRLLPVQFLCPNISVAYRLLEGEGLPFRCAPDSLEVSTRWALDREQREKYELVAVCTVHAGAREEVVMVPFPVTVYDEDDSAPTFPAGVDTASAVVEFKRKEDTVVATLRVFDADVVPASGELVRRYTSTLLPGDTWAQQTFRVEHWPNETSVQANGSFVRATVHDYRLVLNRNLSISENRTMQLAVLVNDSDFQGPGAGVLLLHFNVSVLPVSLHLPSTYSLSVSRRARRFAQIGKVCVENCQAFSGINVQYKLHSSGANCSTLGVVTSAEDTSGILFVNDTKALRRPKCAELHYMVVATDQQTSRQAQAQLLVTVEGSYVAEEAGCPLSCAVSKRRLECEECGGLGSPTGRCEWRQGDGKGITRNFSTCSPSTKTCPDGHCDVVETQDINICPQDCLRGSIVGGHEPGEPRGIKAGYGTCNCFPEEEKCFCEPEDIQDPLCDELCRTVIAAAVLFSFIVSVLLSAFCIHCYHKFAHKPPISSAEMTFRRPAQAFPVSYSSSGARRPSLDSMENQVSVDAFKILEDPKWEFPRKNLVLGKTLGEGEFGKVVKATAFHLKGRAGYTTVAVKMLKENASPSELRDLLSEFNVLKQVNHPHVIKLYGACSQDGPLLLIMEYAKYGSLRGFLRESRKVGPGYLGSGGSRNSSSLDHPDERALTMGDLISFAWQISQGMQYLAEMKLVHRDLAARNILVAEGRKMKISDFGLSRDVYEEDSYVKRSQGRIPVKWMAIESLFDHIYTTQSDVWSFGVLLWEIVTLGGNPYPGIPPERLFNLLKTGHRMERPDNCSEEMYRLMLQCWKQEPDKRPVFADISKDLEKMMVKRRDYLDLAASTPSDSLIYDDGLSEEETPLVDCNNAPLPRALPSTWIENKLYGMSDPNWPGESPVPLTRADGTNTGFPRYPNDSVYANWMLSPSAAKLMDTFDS

[9] = target: 456 kinases (of these 395 non-mutant kinases) (Homo sapiens, UniProt P00533, L858R/T790M); settings: EGFR(L858R,T790M); 10 μM
[10] = target: 456 kinases (of these 395 non-mutant kinases) (Homo sapiens, UniProt P0C264); settings: SgK110; 10 μM
[11] = target: 456 kinases (of these 395 non-mutant kinases) (Homo sapiens, UniProt Q96GD4); settings: AURKB; 10 μM
[12] = target: 456 kinases (of these 395 non-mutant kinases) (Homo sapiens, UniProt Q02750); settings: MEK1; 10 μM
[13] = target: 456 kinases (of these 395 non-mutant kinases) (Homo sapiens, UniProt Q13705); settings: ACVR2B; 10 μM
456 kinases (of these 395 non-mutant kinases) (Homo sapiens, UniProt Q13705), sequence (Q13705 19-512 limits assumed, change not shown): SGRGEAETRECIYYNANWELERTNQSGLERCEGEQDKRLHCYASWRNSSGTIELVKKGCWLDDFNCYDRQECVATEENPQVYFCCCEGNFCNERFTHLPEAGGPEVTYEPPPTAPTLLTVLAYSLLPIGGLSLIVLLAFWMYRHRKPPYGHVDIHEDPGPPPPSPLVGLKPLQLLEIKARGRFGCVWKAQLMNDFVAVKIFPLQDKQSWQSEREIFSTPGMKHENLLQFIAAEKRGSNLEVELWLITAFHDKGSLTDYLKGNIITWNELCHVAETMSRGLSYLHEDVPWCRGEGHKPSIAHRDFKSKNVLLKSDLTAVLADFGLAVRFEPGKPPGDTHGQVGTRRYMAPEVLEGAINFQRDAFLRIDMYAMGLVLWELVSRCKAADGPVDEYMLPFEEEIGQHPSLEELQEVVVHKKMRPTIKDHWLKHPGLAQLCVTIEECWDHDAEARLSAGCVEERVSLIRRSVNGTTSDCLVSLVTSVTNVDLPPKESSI

[14] = target: 456 kinases (of these 395 non-mutant kinases) (Homo sapiens, UniProt Q99759); settings: MAP3K3; 10 μM
[15] = target: 456 kinases (of these 395 non-mutant kinases) (Homo sapiens, UniProt Q9UBE8); settings: NLK; 10 μM
[16] = target: 456 kinases (of these 395 non-mutant kinases) (Homo sapiens, UniProt P43405); settings: SYK; 10 μM
[17] = target: 456 kinases (of these 395 non-mutant kinases) (Homo sapiens, UniProt P51817); settings: PRKX; 10 μM
[18] = target: 456 kinases (of these 395 non-mutant kinases) (Homo sapiens, UniProt P11802); settings: 10 μM
456 kinases (of these 395 non-mutant kinases) (Homo sapiens, UniProt P11802), sequence (P11802 2-303 limits assumed, stated change not applied): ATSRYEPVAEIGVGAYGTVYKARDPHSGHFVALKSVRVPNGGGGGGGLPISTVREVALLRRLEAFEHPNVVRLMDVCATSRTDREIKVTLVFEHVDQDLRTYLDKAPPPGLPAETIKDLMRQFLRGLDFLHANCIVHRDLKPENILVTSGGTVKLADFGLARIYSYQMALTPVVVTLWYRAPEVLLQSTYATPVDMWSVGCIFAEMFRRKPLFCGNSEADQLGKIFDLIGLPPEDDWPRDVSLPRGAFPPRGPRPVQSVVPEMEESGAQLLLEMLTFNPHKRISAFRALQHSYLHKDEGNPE

[19] = target: 456 kinases (of these 395 non-mutant kinases) (Homo sapiens, UniProt O15264); settings: p38-delta; 10 μM
[20] = target: 456 kinases (of these 395 non-mutant kinases) (Homo sapiens, UniProt P31751); settings: AKT2; 10 μM
[21] = target: 456 kinases (of these 395 non-mutant kinases) (Homo sapiens, UniProt Q96PY6); settings: NEK1; 10 μM
[22] = target: 456 kinases (of these 395 non-mutant kinases) (Homo sapiens, UniProt Q14004); settings: CDC2L5; 10 μM
[23] = target: 456 kinases (of these 395 non-mutant kinases) (Homo sapiens, UniProt Q86UE8); settings: TLK2; 10 μM
[24] = target: 456 kinases (of these 395 non-mutant kinases) (Homo sapiens, UniProt Q15418); settings: 10 μM
[25] = target: 456 kinases (of these 395 non-mutant kinases) (Homo sapiens, UniProt P00519, M351T); settings: ABL1(M351T)-phosphorylated; 10 μM
[26] = target: 456 kinases (of these 395 non-mutant kinases) (Homo sapiens, UniProt P45985); settings: MEK4; 10 μM
456 kinases (of these 395 non-mutant kinases) (Homo sapiens, UniProt P45985), sequence (P45985 2-399 limits assumed, stated change not applied): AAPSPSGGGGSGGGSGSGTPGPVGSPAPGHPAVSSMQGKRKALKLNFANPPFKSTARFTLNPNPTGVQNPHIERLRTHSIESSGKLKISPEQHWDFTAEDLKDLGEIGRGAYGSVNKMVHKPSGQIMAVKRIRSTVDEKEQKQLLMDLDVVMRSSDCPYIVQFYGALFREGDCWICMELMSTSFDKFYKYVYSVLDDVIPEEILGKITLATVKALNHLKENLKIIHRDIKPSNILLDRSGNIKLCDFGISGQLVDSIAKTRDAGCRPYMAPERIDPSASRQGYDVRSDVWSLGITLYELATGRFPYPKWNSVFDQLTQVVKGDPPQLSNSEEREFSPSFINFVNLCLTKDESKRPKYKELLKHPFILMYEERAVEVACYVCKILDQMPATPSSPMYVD

[27] = target: 456 kinases (of these 395 non-mutant kinases) (Homo sapiens, UniProt P36888, N841I); settings: FLT3(N841I); 10 μM
[28] = target: 456 kinases (of these 395 non-mutant kinases) (Homo sapiens, UniProt Q05655); settings: PRKCD; 10 μM
[29] = target: 456 kinases (of these 395 non-mutant kinases) (Homo sapiens, UniProt P29376); settings: LTK; 10 μM
456 kinases (of these 395 non-mutant kinases) (Homo sapiens, UniProt P29376), sequence (P29376 17-864 limits assumed, change not shown): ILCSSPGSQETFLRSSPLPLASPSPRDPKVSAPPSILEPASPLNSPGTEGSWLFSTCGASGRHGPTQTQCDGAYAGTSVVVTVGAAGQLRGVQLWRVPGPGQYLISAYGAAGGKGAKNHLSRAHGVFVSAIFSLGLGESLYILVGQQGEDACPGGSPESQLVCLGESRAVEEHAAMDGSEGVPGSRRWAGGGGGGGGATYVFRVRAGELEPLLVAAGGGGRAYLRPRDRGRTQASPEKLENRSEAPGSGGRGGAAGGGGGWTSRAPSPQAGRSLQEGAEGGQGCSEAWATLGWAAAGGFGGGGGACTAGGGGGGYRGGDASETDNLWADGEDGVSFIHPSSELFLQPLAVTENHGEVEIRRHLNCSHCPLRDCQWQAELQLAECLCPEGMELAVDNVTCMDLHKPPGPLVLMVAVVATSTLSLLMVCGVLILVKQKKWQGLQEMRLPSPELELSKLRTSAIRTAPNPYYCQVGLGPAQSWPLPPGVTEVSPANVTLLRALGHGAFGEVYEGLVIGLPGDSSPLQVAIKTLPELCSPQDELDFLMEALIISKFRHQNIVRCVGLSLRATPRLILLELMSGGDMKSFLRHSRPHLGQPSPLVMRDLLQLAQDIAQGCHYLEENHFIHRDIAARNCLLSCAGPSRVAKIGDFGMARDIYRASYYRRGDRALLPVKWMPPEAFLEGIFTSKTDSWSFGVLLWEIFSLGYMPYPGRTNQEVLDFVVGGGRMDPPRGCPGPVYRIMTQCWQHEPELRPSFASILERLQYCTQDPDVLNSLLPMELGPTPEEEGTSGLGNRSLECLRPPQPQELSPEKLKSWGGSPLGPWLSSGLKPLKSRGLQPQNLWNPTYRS

[30] = target: 456 kinases (of these 395 non-mutant kinases) (Homo sapiens, UniProt Q99640); settings: PKMYT1; 10 μM
[31] = target: 456 kinases (of these 395 non-mutant kinases) (Homo sapiens, UniProt Q52WX2); settings: SBK1; 10 μM

CCc1ccccc1NC(=O)c1c(C)nsc1Nc1cnc2cc(F)ccc2n1 [Example 20, N-(2-Ethylphenyl)-5-[(6-fluoroquinoxalin-2-yl)amino]-3-methyl-1,2-thiazole-4-carboxamide]
% Ctrl @ 10 μM [1]: 95 % Ctrl
% Ctrl @ 10 μM ([2]; ABL1(T315I)-nonphosphorylated): 100 % Ctrl
% Ctrl @ 10 μM ([2]; ABL1(T315I)-phosphorylated): 87 % Ctrl
% Ctrl @ 10 μM [3]: 100 % Ctrl
% Ctrl @ 10 μM [4]: 100 % Ctrl
% Ctrl @ 10 μM [5]: 56 % Ctrl
% Ctrl @ 10 μM [6]: 100 % Ctrl
% Ctrl @ 10 μM [7]: 100 % Ctrl
% Ctrl @ 10 μM [8]: 100 % Ctrl
% Ctrl @ 10 μM [9]: 96 % Ctrl
% Ctrl @ 10 μM [10]: 100 % Ctrl
% Ctrl @ 10 μM [11]: 100 % Ctrl
% Ctrl @ 10 μM [12]: 97 % Ctrl
% Ctrl @ 10 μM [13]: 91 % Ctrl
% Ctrl @ 10 μM [14]: 100 % Ctrl
% Ctrl @ 10 μM [15]: 100 % Ctrl
% Ctrl @ 10 μM [16]: 90 % Ctrl
% Ctrl @ 10 μM [17]: 75 % Ctrl
% Ctrl @ 10 μM ([18]; CDK4-cyclinD1): 85 % Ctrl
% Ctrl @ 10 μM ([18]; CDK4-cyclinD3): 93 % Ctrl
% Ctrl @ 10 μM [19]: 100 % Ctrl
% Ctrl @ 10 μM [20]: 90 % Ctrl
% Ctrl @ 10 μM [21]: 100 % Ctrl
% Ctrl @ 10 μM [22]: 100 % Ctrl
% Ctrl @ 10 μM [23]: 94 % Ctrl
% Ctrl @ 10 μM ([24]; RSK1(Kin.Dom.1-N-terminal)): 95 % Ctrl
% Ctrl @ 10 μM ([24]; RSK1(Kin.Dom.2-C-terminal)): 86 % Ctrl
% Ctrl @ 10 μM [25]: 90 % Ctrl
% Ctrl @ 10 μM [26]: 67 % Ctrl
% Ctrl @ 10 μM [27]: 84 % Ctrl
% Ctrl @ 10 μM [28]: 85 % Ctrl
% Ctrl @ 10 μM [29]: 68 % Ctrl
% Ctrl @ 10 μM [30]: 100 % Ctrl
% Ctrl @ 10 μM [31]: 91 % Ctrl
